“And” between values parts separate entries of the source, which are not always exact repeats. Equal values may be shown once.
Assays:
[1] = Photophysical properties of the complexes measured in methanol; type: physicochemical; details: for λ max: absorption; for B at λ max: brightness at λ max; for ε: molar extinction coefficient; for Φ: quantum yield
Method: (§1) The NMR (^1H, ^13C) spectra were recorded on a Bruker Avance device at a frequency of 300 MHz or 500.10 MHz, and 75 MHz or 125.75 MHz, for ^1H and ^13C respectively. Chemical shifts (δ) are expressed in parts per million (ppm) with respect to […] used as an internal standard and using the solvents indicated. The coupling constants (J) are expressed in Hz and the following notations are used: s (singlet), br (broad), d (doublet), t (triplet), dd (doublet of doublets), m (multiplet). The high-resolution mass spectra were recorded at the Lyon Common Mass Spectrometry Centre (Claude Bernard Lyon University, Lyon, France) on a MicroTOFQII instrument equipped with a positive ESI source. […] Purifications were carried out by chromatographic column on silica gel (silica gel 0.035-0.070 mm, 60 A). The solvents used for the reactions were purchased from Aldrich or Acros Organics as dry or extra dry solvents and stored on 3 Å molecular sieves and the reagents used were purchased from Aldrich, Acros Organics or Alfa Aesar. The UV/Vis absorption spectra were recorded on a JASCO V670 spectrometer; the emission spectra on a JOBIN-YVON fluorolog 3 spectrofluorimeter. Retention times were performed on an Agilent Technologies 1260 device equipped with a Waters XBridge RP-C18 column ([…], 4.6×100 mm). The chromatographic system used is 0.25 M ammonium formate-MeCN (v/v) as eluents: isocratic 15% MeCN (2 min), linear gradient 15 to 100% MeCN (16 min), isocratic 100% MeCN (4 min), at a rate of 1 mL/min, UV detection at 210 and 252 nm. Cellular imaging tests were performed using a solution concentrated in complex in DMSO to obtain a final complex concentration in the order of […] in cellular medium (PBS) with <1% DMSO. The T24 cells are prefixed to the PFA. The biphotonic absorption spectra were performed with a confocal laser scanning microscope LSM710 NLO (Carl Zeiss).
The properties of complexes Ia.1-Ia.6 and 8 were evaluated in methanol (Table 1) and water (Table 2). These properties were compared to those of complex 9, described in the document, Dalton Trans.

[2] = Photophysical properties of the complexes measured in water; type: physicochemical; details: for λ max: absorption; for B at λ max: brightness at λ max; for ε: molar extinction coefficient
Method: as §1
The properties of complexes Ia.1-Ia.6 and 8 were evaluated in methanol (Table 1) and water (Table 2). These properties were compared to those of complex 9, described in the document, Dalton Trans. 2015, 44, 4918, and of the following structure:
The spectroscopic properties of complexes Ia.2 and Ia.4 are stored in water (Table 2).

| SMILES | λ max ([1]; methanol) | B at λ max ([1]; methanol) | ε ([1]; methanol) | Φ ([1]; methanol) | decrease of the molar extinction coefficient on introduction of a second methyl group ([1]; Ia.4 compared with its counterpart Ia.2) | B at 330 nm ([1]; brightness at 330 nm, methanol) | T ([1]; luminescence lifetime, methanol) | λ max ([2]; absorption band at 275 nm) | λ max ([2]; absorption band at 300 nm) | B at 330 nm ([2]; brightness at 330 nm) | B at λ max ([2]; absorption band at 275 nm) | B at λ max ([2]; absorption band at 300 nm) | T ([2]; luminescence lifetime) | ε ([2]; absorption band at 275 nm) | ε ([2]; absorption band at 300 nm) | Φ ([2]; quantum yield) |
| --- | --- | --- | --- | --- | --- | --- | --- | --- | --- | --- | --- | --- | --- | --- | --- | --- |
| COc1ccc(-c2cc(CN3CCN(Cc4cc(-c5ccc(OC)cc5)cc(C(=O)[O-])n4)CCN(Cc4cc(-c5ccc(OC)cc5)cc(C(=O)[O-])n4)CC3)nc(C(=O)[O-])c2)cc1.[Tb+3] [complex 9, reference compound] | 308 nm | 3900 L/mol/cm | 33000 L/mol/cm | 12% | – | – | – | – | – | – | – | – | – | – | – | – |
| COCCOCCOCCOc1cc(C)c(-c2cc(CN3CCN(Cc4cc(-c5c(C)cc(OCCOCCOCCOC)cc5C)cc(C(=O)[O-])n4)CCN(Cc4cc(-c5c(C)cc(OCCOCCOCCOC)cc5C)cc(C(=O)[O-])n4)CC3)nc(C(=O)[O-])c2)c(C)c1.[Tb+3] [Ia.4] | 302 nm and 274 nm | 8500 L/mol/cm and 12000 L/mol/cm | 13000 L/mol/cm and 19000 L/mol/cm | 65% | more than 50% | 3400 L/mol/cm | 1.59 ms | 275 nm | 300 nm | 2500 L/mol/cm | 14000 L/mol/cm | 7800 L/mol/cm | 1.46 ms | 21000 L/mol/cm | 11800 L/mol/cm | 66% |
